Read-outs that look alike come from different tables or passages of the source.

The assay deals with HIV-IIIb. As to the kind of experiment: Test A: Antiviral Assays in MT4 Cells. In kind it is cell-based. How it is done:
Test A: Antiviral Assays in MT4 Cells
For the antiviral assay utilizing MT-4 cells, 0.4 μL of […] test concentration of 3-fold serially diluted compound in DMSO was added to 40 μL of cell growth medium (RPMI 1640, 10% FBS, 1% penicillin/Streptomycin, 1% L-Glutamine, 1% HEPES) in each well of 384-well assay plates (10 concentrations) in quadruplicate.
1 mL aliquots of 2×10e6 MT-4 cells are pre-infected for 1 and 3 hrs respectively, @37° C. with 25 μL (MT4) or of either cell growth medium (mock-infected) or a fresh 1:250 dilution of an HIV-IIIb concentrated ABI stock (0.004 m.o.i. for MT4 cells). Infected and uninfected cells are diluted in cell growth medium and 35 uL of 2000 (for MT4) cells is added to each well of the assay plates.
Assay plates were then incubated in a 37° C. incubator. After 5 days of incubation, 25 μl of 2× concentrated CellTiter-Glo™ Reagent (catalog #G7573, Promega Biosciences, Inc., Madison, Wis.) was added to each well of the assay plate. Cell lysis was carried out by incubating at room temperature for 2-3 min and then chemiluminescence was read using the Envision reader (PerkinElmer).

Where [1] appears, read: Human immunodeficiency virus 1, IIIB, MT4, 120 h, MT-4 cells infected with HIV-IIIb (0.004 m.o.i.), 5 days of incubation, CellTiter-Glo chemiluminescence readout, read-out: EC50.

As a reminder, the EC50 is the concentration at which the effect is half-maximal. Regarding `Cc1cc2ccccc2c(C2=CC(C)(C)CCC2=O)c1[C@H](OC(C)(C)C)C(=O)O` [Compound 11, (S)-2-tert-Butoxy-2-(1-(3,3-dimethyl-6-oxocyclohex-1-enyl)-3-methylnaphthalen-2-yl)acetic acid], under setting [1], the EC50 is 8900 nM. For the compound `Cc1cc2ccccc2c(C2=CCCC2)c1[C@H](OC(C)(C)C)C(=O)O` [Compound 12, (S)-2-tert-Butoxy-2-(1-cyclopentenyl-3-methylnaphthalen-2-yl)acetic acid], the EC50 under setting [1] was determined as 110 nM.

Regarding `Cc1cc2ccccc2c(C2=CCC(C)CC2)c1[C@H](OC(C)(C)C)C(=O)O` (stereo partly drawn) [Compound 13, (2S)-2-tert-Butoxy-2-(3-methyl-1-(4-methylcyclohex-1-enyl)naphthalen-2-yl)acetic acid], the EC50 under setting [1] amounted to 10 nM. Consider `Cc1cc2ccccc2c(C2=CCC(C)(C)CC2)c1[C@H](OC(C)(C)C)C(=O)O` [Compound 14, (S)-2-tert-Butoxy-2-(1-(4,4-dimethylcyclohex-1-enyl)-3-methylnaphthalen-2-yl)acetic acid], for which the EC50 under setting [1] turned out to be 11 nM.

Regarding `Cc1cc2ccccc2c(C2=CCC3(CC2)CC3)c1[C@H](OC(C)(C)C)C(=O)O` [Compound 15, (S)-2-tert-Butoxy-2-(3-methyl-1-(spiro[2.5]oct-5-en-6-yl)naphthalen-2-yl)acetic acid], the EC50 under setting [1] was 15 nM.

`Cc1cc2ccccc2c(-c2cnc3ccccc3c2)c1[C@H](OC(C)(C)C)C(=O)O` [Compound 16, (S)-2-tert-Butoxy-2-(3-methyl-1-(quinolin-3-yl)naphthalen-2-yl)acetic acid]: the concentration for a half-maximal effect (EC50) under setting [1] was found to be 7000 nM. Regarding `Cc1ccc2ccc(F)c(-c3c([C@H](OC(C)(C)C)C(=O)O)c(C)cc4ccccc34)c2n1` [Compound 17, (S)-2-(tert-Butoxy)-2-((S)-1-(7-fluoro-2-methylquinolin-8-yl)-3-methylnaphthalen-2-yl)acetic acid], under setting [1], the EC50 worked out at 7700 nM. The compound `Cc1cc2ccccc2c(-c2cccc(N3CCC3)c2)c1[C@H](OC(C)(C)C)C(=O)O` [Compound 19, (S)-2-(1-(3-(Azetidin-1-yl)phenyl)-3-methylnaphthalen-2-yl)-2-tert-butoxyacetic acid] gave an EC50 (Human immunodeficiency virus 1, IIIB, MT4, 120 h) of 5400 nM. Turning to `Cc1cc2ccccc2c(-c2ccc3c4c2NCCC4CCO3)c1[C@H](OC(C)(C)C)C(=O)O` (stereo partly drawn) [Compound 20, (2S)-2-tert-Butoxy-2-(1-((7R)-2,3,3a,4,5,6-hexahydropyrano[4,3,2de]quinolin-7-yl)-3-methylnaphthalen-2-yl)acetic acid], under setting [1], the EC50 was found to be 93 nM. The same measure, in the same setting: the figure for `Cc1cc2ccccc2c(-c2ccc3c4c2N(C)CCC4CCO3)c1[C@H](OC(C)(C)C)C(=O)O` (stereo partly drawn) [Compound 22, (2S)-2-tert-Butoxy-2-(3-methyl-1-((7R)-6-methyl-2,3,3a,4,5,6-hexahydropyrano[4,3,2-de]quinolin-7-yl)naphthalen-2-yl)acetic acid] is 540 nM.

Regarding `Cc1cc2ccccc2c(-c2ccc3c4c(cc[n+]([O-])c24)CCO3)c1[C@H](OC(C)(C)C)C(=O)O` [Compound 23, 7-((R)-2-((S)-tert-Butoxy(carboxy)methyl)-3-methylnaphthalen-1-yl)-2,3-dihydropyrano[4,3,2-de]quinoline 6-oxide], the EC50 (MT-4 cells infected with HIV-IIIb (0.004 m.o.i.), 5 days of incubation, CellTiter-Glo chemiluminescence readout, read-out: EC50) was determined as 24 nM. As for `CN(C)Cc1cc2ccccc2c(-c2ccc(Cl)cc2)c1[C@H](OC(C)(C)C)C(=O)O` [Compound 24, (S)-2-tert-Butoxy-2-(1-(4-chlorophenyl)-3-(dimethylaminomethyl)naphthalen-2-yl)acetic acid], the concentration giving a half-maximal response (EC50) under setting [1] amounted to 29000 nM. Turning to `CC(C)(C)O[C@H](C(=O)O)c1c(COc2cccnc2)cc2ccccc2c1-c1ccc(Cl)cc1` [Compound 25, (S)-2-tert-Butoxy-2-(1-(4-chlorophenyl)-3-((pyridin-3-yloxy)methyl)naphthalen-2-yl)acetic acid], under setting [1], the EC50 was 26000 nM. As for `CC(C)(C)O[C@H](C(=O)O)c1c(COc2cncnc2)cc2ccccc2c1-c1ccc(Cl)cc1` [Compound 26, (S)-2-tert-Butoxy-2-(1-(4-chlorophenyl)-3-((pyrimidin-5-yloxy)methyl)naphthalen-2-yl)acetic acid], the concentration for a half-maximal effect (EC50) under setting [1] was determined as 840 nM.

The record behind these values is patent US9102614B2, “Naphth-2-ylacetic acid derivatives to treat AIDS” (Gilead Sciences, Inc., priority 2010, dated 2015).
